Tested on: p-IKKa levels in L363 (NIK translocated multiple myeloma) cells
Experiment: Assay 2: Effect of compounds on p-IKKa levels in L363 (NIK translocated multiple myeloma) cells
Format: cell-based
Conditions: Homo sapiens, L-363, 6 h, read-out: Assay 2 IC50 (nM), p-IKKa (Ser 176/180) in BAFF stimulated L363 cells with MG132, 6 h; average if tested more than once
How it was run: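 Read-out is p-IKKa Ser176/180 by AlphaLISA SureFire in lysates. Cells were BAFF-primed (250 ng/ml) overnight or left unstimulated, then exposed 6 h at 37 °C to compound with MG132 (10 μM), 0.3% DMSO. IC50 from sigmoidal curve fit, normalized between stimulated and unstimulated controls.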

Row | SMILES | IC50
1 | CCO[C@@H]1COC[C@H]1Nc1nccc(-c2cccc(-c3cc([C@]4(O)CCN(C)C4=O)on3)n2)n1 [Example 352, (R)-3-(3-(6-(2-(((trans)-4-Ethoxytetrahydrofuran-3-yl)amino)pyrimidin-4-yl)pyridin-2-yl)isoxazol-5-yl)-3-hydroxy-1-methylpyrrolidin-2-one] | 50 to 500 nM
2 | CN1CC[C@@](O)(c2cc(-c3cccc(-c4ccnc(Nc5cn[nH]c5)n4)n3)no2)C1=O [Example 40, (R)-3-(3-(6-(2-((1H-Pyrazol-4-yl)amino)pyrimidin-4-yl)pyridin-2-yl)isoxazol-5-yl)-3-hydroxy-1-methylpyrrolidin-2-one] | < 50 nM
3 | Cc1cc(C(C)Nc2nccc(-c3cccc(-c4cc([C@]5(O)CCN(C)C5=O)on4)n3)n2)on1 (stereo partly drawn) [Example 382, (3R)-3-Hydroxy-1-methyl-3-(3-(6-(2-((1-(3-methylisoxazol-5-yl)ethyl)amino)pyrimidin-4-yl)pyridin-2-yl)isoxazol-5-yl)pyrrolidin-2-one] | 50 to 500 nM
4 | C[C@H](Nc1nccc(-c2cccc(-c3cc([C@]4(O)CCN(C)C4=O)on3)n2)n1)c1cccnc1 [Example 374, (R)-3-Hydroxy-1-methyl-3-(3-(6-(2-(((S)-1-(pyridin-3-yl)ethyl)amino)pyrimidin-4-yl)pyridin-2-yl)isoxazol-5-yl)pyrrolidin-2-one] | 50 to 500 nM
5 | CN1CC[C@@](O)(c2cc(-c3cccc(-c4ccnc(Nc5ccnn6ccnc56)n4)n3)no2)C1=O [Example 127, (R)-3-Hydroxy-3-(3-(6-(2-(imidazo[1,2-b]pyridazin-8-ylamino)pyrimidin-4-yl)pyridin-2-yl)isoxazol-5-yl)-1-methylpyrrolidin-2-one] | 50 to 500 nM
6 | Cc1cc(Nc2nccc(-c3cccc(-c4cc([C@]5(O)CCN(C)C5=O)on4)n3)n2)n(CCO)n1 [Example 129, (R)-3-Hydroxy-3-(3-(6-(2-((1-(2-hydroxyethyl)-3-methyl-1H-pyrazol-5-yl)amino)pyrimidin-4-yl)pyridin-2-yl)isoxazol-5-yl)-1-methylpyrrolidin-2-one] | 50 to 500 nM
7 | CN1CC[C@@](O)(c2cc(-c3cccc(-c4ccnc(NCCC(F)(F)F)n4)n3)no2)C1=O [Example 435, (R)-3-Hydroxy-1-methyl-3-(3-(6-(2-((3,3,3-trifluoropropyl)amino)pyrimidin-4-yl)pyridin-2-yl)isoxazol-5-yl)pyrrolidin-2-one] | 50 to 500 nM
8 | [2H]c1cc(-c2cccc(-c3cc([C@]4(O)CCN(C)C4=O)no3)n2)nc(Nc2ccn(C)n2)n1 [Example 200, (R)-3-Hydroxy-1-methyl-3-(5-(6-(2-((1-methyl-1H-pyrazol-3-yl)amino)pyrimidin-4-yl-6-d)pyridin-2-yl)isoxazol-3-yl)pyrrolidin-2-one] | < 50 nM
9 | CN1CC[C@@](O)(c2cc(-c3cccc(-c4ccnc(NC5COC5)n4)n3)no2)C1=O [Example 66, (R)-3-Hydroxy-1-methyl-3-(3-(6-(2-(oxetan-3-ylamino)pyrimidin-4-yl)pyridin-2-yl)isoxazol-5-yl)pyrrolidin-2-one] | 50 to 500 nM
10 | CN1CC[C@@](O)(c2cc(-c3cccc(-c4ccnc(NCC5(O)CC5)n4)n3)no2)C1=O [Example 466, (R)-3-Hydroxy-3-(3-(6-(2-(((1-hydroxycyclopropyl)methyl)amino)pyrimidin-4-yl)pyridin-2-yl)isoxazol-5-yl)-1-mehtylpyrrolidin-2-one] | > 500 nM
11 | CN1CC[C@@](O)(c2cc(-c3cccc(-c4ccnc(Nc5cnc6c(c5)CCCO6)n4)n3)no2)C1=O [Example 474, (R)-3-(3-(6-(2-((3,4-Dihydro-2H-pyrano[2,3-b]pyridin-6-yl)amino)pyrimidin-4-yl)pyridin-2-yl)isoxazol-5-yl)-3-hydroxy-1-methylpyrrolidin-2-one] | < 50 nM
12 | CN1CC[C@@](O)(c2cc(-c3cccc(-c4ccnc(Nc5cc6n(n5)CCNC6)n4)n3)no2)C1=O [Example 430, (R)-3-Hydroxy-1-methyl-3-(3-(6-(2-((4,5,6,7-tetrahydropyrazolo[1,5-a]pyrazin-2-yl)amino)pyrimidin-4-yl)pyridin-2-yl)isoxazol-5-yl)pyrrolidin-2-one] | 50 to 500 nM
13 | CN1CC[C@@](O)(c2cc(-c3cccc(-c4ccnc(NC5CCSC5)n4)n3)no2)C1=O (mixture of isomers) [Example 456, (3R)-3-Hydroxy-1-methyl-3-(3-(6-(2-((tetrahydrothiophen-3-yl)amino)pyrimidin-4-yl)pyridin-2-yl)isoxazol-5-yl)pyrrolidin-2-one] | 50 to 500 nM
14 | C[C@@H](Nc1nccc(-c2cccc(-c3cc([C@]4(O)CCN(C)C4=O)on3)n2)n1)c1cnnn1C [Example 383, (R)-3-Hydroxy-1-methyl-3-(3-(6-(2-(((R)-1-(1-methyl-1H-1,2,3-triazol-5-yl)ethyl)amino)pyrimidin-4-yl)pyridin-2-yl)isoxazol-5-yl)pyrrolidin-2-one] | 50 to 500 nM
15 | CN1CC[C@@](O)(c2cc(-c3cccc(-c4ccnc(Nc5cnn(C)c5C(F)F)n4)n3)no2)C1=O (single isomer, unassigned) [Example 198, (*R)-3-(3-(6-(2-((5-(Difluoromethyl)-1-methyl-1H-pyrazol-4-yl)amino)pyrimidin-4-yl)pyridin-2-yl)isoxazol-5-yl)-3-hydroxy-1-methylpyrrolidin-2-one] | < 50 nM
16 | C[C@@H](Nc1nccc(-c2cccc(-c3cc([C@]4(O)CCN(C)C4=O)on3)n2)n1)c1ccnn1C (single isomer, unassigned) [Example 67] | 50 to 500 nM
17 | C[C@@H](O)[C@H](Nc1nccc(-c2cccc(-c3cc([C@]4(O)CCN(C)C4=O)on3)n2)n1)c1ccccc1 [Example 159, (R)-3-Hydroxy-3-(3-(6-(2-(((1R,2R)-2-hydroxy-1-phenylpropyl)amino)pyrimidin-4-yl)pyridin-2-yl)isoxazol-5-yl)-1-methylpyrrolidin-2-one] | 50 to 500 nM
18 | CN1CC[C@@](O)(c2cc(-c3cccc(-c4ccnc(NC[C@@H]5C[C@@H]5F)n4)n3)no2)C1=O [Example 345, (R)-3-(3-(6-(2-((((cis)-2-Fluorocyclopropyl)methyl)amino)pyrimidin-4-yl)pyridin-2-yl)isoxazol-5-yl)-3-hydroxy-1-methylpyrrolidin-2-one] | 50 to 500 nM
19 | C[C@@H](Nc1nccc(-c2cccc(-c3cc([C@]4(O)CCN(C)C4=O)on3)n2)n1)c1ccn(C)n1 (single isomer, unassigned) [Example 404, (R)-3-Hydroxy-1-methyl-3-(3-(6-(2-(((*R)-1-(1-methyl-1H-pyrazol-3-yl)ethyl)amino)pyrimidin-4-yl)pyridin-2-yl)isoxazol-5-yl)pyrrolidin-2-one] | > 500 nM
20 | C[C@@H](Nc1nccc(-c2cccc(-c3cc([C@]4(O)CCN(C)C4=O)on3)n2)n1)C(=O)N1CCC(F)(F)C1 [Example 173, (R)-3-(3-(6-(2-(((R)-1-(3,3-Difluoropyrrolidin-1-yl)-1-oxopropan-2-yl)amino)pyrimidin-4-yl)pyridin-2-yl)isoxazol-5-yl)-3-hydroxy-1-methylpyrrolidin-2-one] | > 500 nM
21 | C[C@@H](Nc1nccc(-c2cccc(-c3cc([C@]4(O)CCN(C)C4=O)on3)n2)n1)C(=O)N1CCC1 [Example 167, (R)-3-(3-(6-(2-(((R)-1-(Azetidin-1-yl)-1-oxopropan-2-yl)amino)pyrimidin-4-yl)pyridin-2-yl)isoxazol-5-yl)-3-hydroxy-1-methylpyrrolidin-2-one] | > 500 nM
22 | Cc1nccc(Nc2nccc(-c3cccc(-c4cc([C@]5(O)CCN(C)C5=O)on4)n3)n2)c1C [Example 128, (R)-3-(3-(6-(2-((2,3-Dimethylpyridin-4-yl)amino)pyrimidin-4-yl)pyridin-2-yl)isoxazol-5-yl)-3-hydroxy-1-methylpyrrolidin-2-one] | < 50 nM
23 | CCn1cc(Nc2nccc(-c3cccc(-n4cc([C@]5(O)CCN(C)C5=O)nn4)n3)n2)c(C)n1 [Example 402, (R)-3-(1-(6-(2-((1-Ethyl-3-methyl-1H-pyrazol-4-yl)amino)pyrimidin-4-yl)pyridin-2-yl)-1H-1,2,3-triazol-4-yl)-3-hydroxy-1-methylpyrrolidin-2-one] | < 50 nM
24 | Cc1nccc(Nc2nccc(-c3cccc(-c4cc([C@]5(O)CCN(C)C5=O)on4)n3)n2)n1 [Example 298, (R)-3-Hydroxy-1-methyl-3-(3-(6-(2-((2-methylpyrimidin-4-yl)amino)pyrimidin-4-yl)pyridin-2-yl)isoxazol-5-yl)pyrrolidin-2-one] | < 50 nM
25 | Cc1c(Nc2nccc(-c3cccc(-c4cc([C@]5(O)CCN(C)C5=O)on4)n3)n2)cnn1C [Example 222, (R)-3-(3-(6-(2-((1,5-Dimethyl-1H-pyrazol-4-yl)amino)pyrimidin-4-yl)pyridin-2-yl)isoxazol-5-yl)-3-hydroxy-1-methylpyrrolidin-2-one] | < 50 nM
26 | CN1CC[C@@](O)(c2cc(-c3cccc(-c4ccnc(Nc5cnn6c5CCC6)n4)n3)no2)C1=O [Example 221, (R)-3-(3-(6-(2-((5,6-Dihydro-4H-pyrrolo[1,2-b]pyrazol-3-yl)amino)pyrimidin-4-yl)pyridin-2-yl)isoxazol-5-yl)-3-hydroxy-1-methylpyrrolidin-2-one] | < 50 nM
27 | C[C@@H]1C[C@@](O)(c2cc(-c3cccc(-c4ccnc(Nc5cnn(C)c5)n4)n3)no2)C(=O)N1C [Example 286, (3R,5R)-3-Hydroxy-1,5-dimethyl-3-(3-(6-(2-((1-methyl-1H-pyrazol-4-yl)amino)pyrimidin-4-yl)pyridin-2-yl)isoxazol-5-yl)pyrrolidin-2-one] | > 500 nM
28 | CN1CC[C@@](O)(c2cc(-c3cccc(-c4ccnc(Nc5cnc6ccccn56)n4)n3)no2)C1=O [Example 219, (R)-3-Hydroxy-3-(3-(6-(2-(imidazo[1,2-a]pyridin-3-ylamino)pyrimidin-4-yl)pyridin-2-yl)isoxazol-5-yl)-1-methylpyrrolidin-2-one] | > 500 nM

Reference: patent US20250282768A1 (Janssen Pharmaceutica NV, priority 2022, published 2025)
